Measured values reported in publication PMC4810081, “Venetoclax (ABT-199) Might Act as a Perpetrator in Pharmacokinetic Drug–Drug Interactions” (Pharmaceutics, 2016).

Assays:
[1] = tested on: CYP1A1; test: Induction assay, CYP1A1 mRNA by real-time RT-PCR in LS180 cells; type: in vitro ADME, human; details: four days, 10 µM
Description: (§1) LS180 cells. The human colon adenocarcinoma cell line LS180 (available at ATCC, Manassas, VA, USA) is one of the standard models for investigating pregnane X receptor (PXR) and aryl hydrocarbon receptor (AhR) mediated induction and was thus used for induction experiments. Cells were cultured under standard cell culture conditions with DMEM supplemented with 10% FCS, 2 mM of glutamine, 100 U/mL of penicillin, 100 µg/mL of streptomycin sulfate, and 0.1 mM of nonessential amino acids.
For the induction experiments, LS180 cells were seeded in 75 cm^2 culturing flasks and incubated for three days. […]
RNA was isolated using the GenElute™ Mammalian Total RNA Miniprep Kit, and cDNA was synthesized with the RevertAid™ H Minus First Strand cDNA Synthesis Kit according to the manufacturer's instructions. mRNA expression was quantified by real-time RT-PCR with the LightCycler® 480 (Roche Applied Science, Mannheim, Germany) as described previously. […] Data were evaluated via calibrator-normalized relative quantification with efficiency correction using the LightCycler® 480 software version 1.5 (Roche Applied Science, Mannheim, Germany). […] The following target genes were quantified: CYP1A1, CYP1A2, CYP3A4, ABCB1, ABCC2, ABCG2, SLCO1B1 (coding for OATP1B1), UDP-glucuronosyltransferase 1A3 (UGT1A3), and UGT1A9.

[2] = tested on: cell lines used for P-gp, BCRP, and OATP inhibition assays; test: Cytotoxicity assay (Cytotoxicity Detection Kit); type: cell-based; details: up to 100 µM, all cell lines used
Description: Prior to P-gp, BCRP, and OATP inhibition assays, venetoclax was tested in the respective cell lines for cytotoxic effects with the Cytotoxicity Detection Kit (Roche Applied Science, Mannheim, Germany). Venetoclax was not cytotoxic up to 100 µM in all cell lines used.

[3] = target: T1, CYP2D6 (Homo sapiens, UniProt P10635); test: CYP2D6 inhibition, CYP2D6/AMMC High Throughput Inhibitor Screening Kit; type: in vitro ADME; details: recombinant CYP, fluorogenic substrate, 0.009–20 µM tested
T1 construct: purchased Becton Dickinson Biosciences (Heidelberg, Germany)
Description: Inhibition studies for CYP2B6, CYP2D6, CYP2C19 and CYP3A4 were performed with the CYP2B6/EFC, CYP2D6/AMMC, the CYP2C19/CEC, and the CYP3A4/BFC High Throughput Inhibitor Screening Kit according to the manufacturer’s instructions. The kits contain the respective recombinant CYP and fluorogenic substrates, which are blocked dyes emitting a fluorescence signal when cleaved by the enzyme. For testing CYP1A2 inhibition, the P450-Glo CYP1A2 Screening System was used according to the manufacturer’s instructions. The kit contains the luminogenic CYP1A2 substrate luciferin-ME, which is converted by CYP1A2 into luciferin-generating light when incubated with the luciferin detection reagent of the kit. Eight concentrations of venetoclax in duplicates (0.009–20 µM) were tested in the fluorescence assays, and eight concentrations in triplicate (0.05–100 µM) were tested for the luminogenic assay. Each experiment was conducted in triplicate.

[4] = tested on: LLC-PK1; test: Growth inhibition assay in LLC-PK1 cells; type: cell-based, porcine; details: Sus scrofa
Description: LLC-PK1 and L-MDR1 cells. L-MDR1 cells, a porcine kidney epithelial cell line over-expressing the human ABCB1 gene and the corresponding parental control cell line LLC-PK1 (available from ATCC, Manassas, VA, USA) were used to assess the sensitivity of cells with and without P-gp over-expression. L-MDR1 cells were kindly provided by A. H. Schinkel (The Netherlands Cancer Institute, Division of Experimental Therapy, Amsterdam, The Netherlands). The cells were cultured under standard cell culture conditions with medium M199 supplemented with 10% FCS, 2 mM of glutamine, 100 U/mL of penicillin, and 100 µg/mL of streptomycin sulfate. To maintain P-gp/ABCB1 expression the culture medium for L-MDR1 was supplemented with 0.64 µM of vincristine. One day before seeding the cells for the growth inhibition assay, both cell lines were fed with a vincristine-free culture medium.
Growth inhibition assays in LS180 cells were conducted to determine suitable maximum concentrations for the induction assay without profound antiproliferative effects. Proliferation was quantified by crystal violet staining of the surviving cells as described previously. Each experiment was performed at least in triplicate with n = 8 wells for each concentration (0.1–100 µM). […]

[5] = Growth inhibition assay in L-MDR1 cells; type: cell-based, porcine; details: pig, L-MDR1 cells (LLC-PK1 over-expressing human ABCB1/P-gp)
Description: LLC-PK1 and L-MDR1 cells. […] L-MDR1 cells were kindly provided by A. H. Schinkel (The Netherlands Cancer Institute, Division of Experimental Therapy, Amsterdam, The Netherlands). The cells were cultured under standard cell culture conditions with medium M199 supplemented with 10% FCS, 2 mM of glutamine, 100 U/mL of penicillin, and 100 µg/mL of streptomycin sulfate. To maintain P-gp/ABCB1 expression the culture medium for L-MDR1 was supplemented with 0.64 µM of vincristine. One day before seeding the cells for the growth inhibition assay, both cell lines were fed with a vincristine-free culture medium. Growth inhibition assays in LS180 cells were conducted to determine suitable maximum concentrations for the induction assay without profound antiproliferative effects. Proliferation was quantified by crystal violet staining of the surviving cells as described previously. […] Growth inhibition assays in MDCKII, and their MRP2 or BCRP over-expressing counterparts ([…], MDCKII-BCRP) and in LLC-PK1 and the corresponding P-gp over-expressing cell line L-MDR1 were conducted to evaluate whether venetoclax sustains its efficacy in MDR cell lines.

[6] = tested on: LS180 cells; test: Growth inhibition (proliferation) assay in LS180 cells; type: cell-based; details: Homo sapiens, crystal violet staining
Description: as §1
Growth inhibition assays in LS180 cells were conducted to determine suitable maximum concentrations for the induction assay without profound antiproliferative effects. Proliferation was quantified by crystal violet staining of the surviving cells as described previously. Each experiment was performed at least in triplicate with n = 8 wells for each concentration (0.1–100 µM). The IC20 for proliferation inhibition by venetoclax was 8.4 ± 1.0 µM; thus, the maximum concentration for the induction assay was set to 10 µM, ensuring that about 80% of the cells will survive.

T1 sequence (P10635 whole entry): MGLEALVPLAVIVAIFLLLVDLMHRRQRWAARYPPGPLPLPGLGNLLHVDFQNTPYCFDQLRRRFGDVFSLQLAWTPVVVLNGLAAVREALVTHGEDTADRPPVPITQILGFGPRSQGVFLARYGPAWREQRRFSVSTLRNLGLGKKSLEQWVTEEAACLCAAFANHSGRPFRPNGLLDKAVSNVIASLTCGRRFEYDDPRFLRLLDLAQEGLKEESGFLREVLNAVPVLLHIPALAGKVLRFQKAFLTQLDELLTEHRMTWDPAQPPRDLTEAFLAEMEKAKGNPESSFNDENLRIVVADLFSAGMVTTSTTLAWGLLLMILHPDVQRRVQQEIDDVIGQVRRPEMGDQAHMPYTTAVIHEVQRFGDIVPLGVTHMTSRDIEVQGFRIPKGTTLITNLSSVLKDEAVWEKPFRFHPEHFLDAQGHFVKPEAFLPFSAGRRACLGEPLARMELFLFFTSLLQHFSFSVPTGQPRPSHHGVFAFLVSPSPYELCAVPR

CC1(C)CCC(CN2CCN(c3ccc(C(=O)NS(=O)(=O)c4ccc(NCC5CCOCC5)c([N+](=O)[O-])c4)c(Oc4cnc5[nH]ccc5c4)c3)CC2)=C(c2ccc(Cl)cc2)C1 [Venetoclax]
mRNA expression of CYP1A1 [1]: induced
cytotoxic effects [2]: not cytotoxic
IC50 CYP2D6 inhibition [3]: no inhibition
IC50 ([4]; LLC-PK1, LLC-PK1 + LY335979 (1 µM)): 24.9 ± 1 µM
IC50 ([4]; LLC-PK1, LLC-PK1 parental cells): 21 ± 0.7 µM
IC50 ([5]; with LY335979 (P-gp inhibitor), L-MDR1 + LY335979 (1 µM)): 25.7 ± 4.1 µM
IC50 ([5]; L-MDR1, P-gp over-expressing): 53.1 ± 4.1 µM
IC20 [6]: 8.4 ± 1 µM
